Source: patent US20250122183A1 (Pfizer Inc., priority 2023, published 2025)

Key:
Format in all cases: biochemical
KAT5 Full length enzyme = KAT5 Full length enzyme (Homo sapiens (Human), UniProt Q92993); assay: KAT5 assay (SAMDI-MS acetylation of H4 1-21 peptide); details: Morrison equation fit; replicate number in parentheses; read-out: KAT5 Ki (nM) (replicate number)
KAT6A Full length enzyme = KAT6A Full length enzyme (Homo sapiens (Human), UniProt Q92794); assay: KAT6A assay (SAMDI-MS acetylation of H3 1-21 peptide); details: Morrison equation fit; replicate number in parentheses; read-out: KAT6A Ki (nM) (replicate number)
Chain of KAT6A Full length enzyme (Q92794 other isoform, or with tags, fused parts or gaps): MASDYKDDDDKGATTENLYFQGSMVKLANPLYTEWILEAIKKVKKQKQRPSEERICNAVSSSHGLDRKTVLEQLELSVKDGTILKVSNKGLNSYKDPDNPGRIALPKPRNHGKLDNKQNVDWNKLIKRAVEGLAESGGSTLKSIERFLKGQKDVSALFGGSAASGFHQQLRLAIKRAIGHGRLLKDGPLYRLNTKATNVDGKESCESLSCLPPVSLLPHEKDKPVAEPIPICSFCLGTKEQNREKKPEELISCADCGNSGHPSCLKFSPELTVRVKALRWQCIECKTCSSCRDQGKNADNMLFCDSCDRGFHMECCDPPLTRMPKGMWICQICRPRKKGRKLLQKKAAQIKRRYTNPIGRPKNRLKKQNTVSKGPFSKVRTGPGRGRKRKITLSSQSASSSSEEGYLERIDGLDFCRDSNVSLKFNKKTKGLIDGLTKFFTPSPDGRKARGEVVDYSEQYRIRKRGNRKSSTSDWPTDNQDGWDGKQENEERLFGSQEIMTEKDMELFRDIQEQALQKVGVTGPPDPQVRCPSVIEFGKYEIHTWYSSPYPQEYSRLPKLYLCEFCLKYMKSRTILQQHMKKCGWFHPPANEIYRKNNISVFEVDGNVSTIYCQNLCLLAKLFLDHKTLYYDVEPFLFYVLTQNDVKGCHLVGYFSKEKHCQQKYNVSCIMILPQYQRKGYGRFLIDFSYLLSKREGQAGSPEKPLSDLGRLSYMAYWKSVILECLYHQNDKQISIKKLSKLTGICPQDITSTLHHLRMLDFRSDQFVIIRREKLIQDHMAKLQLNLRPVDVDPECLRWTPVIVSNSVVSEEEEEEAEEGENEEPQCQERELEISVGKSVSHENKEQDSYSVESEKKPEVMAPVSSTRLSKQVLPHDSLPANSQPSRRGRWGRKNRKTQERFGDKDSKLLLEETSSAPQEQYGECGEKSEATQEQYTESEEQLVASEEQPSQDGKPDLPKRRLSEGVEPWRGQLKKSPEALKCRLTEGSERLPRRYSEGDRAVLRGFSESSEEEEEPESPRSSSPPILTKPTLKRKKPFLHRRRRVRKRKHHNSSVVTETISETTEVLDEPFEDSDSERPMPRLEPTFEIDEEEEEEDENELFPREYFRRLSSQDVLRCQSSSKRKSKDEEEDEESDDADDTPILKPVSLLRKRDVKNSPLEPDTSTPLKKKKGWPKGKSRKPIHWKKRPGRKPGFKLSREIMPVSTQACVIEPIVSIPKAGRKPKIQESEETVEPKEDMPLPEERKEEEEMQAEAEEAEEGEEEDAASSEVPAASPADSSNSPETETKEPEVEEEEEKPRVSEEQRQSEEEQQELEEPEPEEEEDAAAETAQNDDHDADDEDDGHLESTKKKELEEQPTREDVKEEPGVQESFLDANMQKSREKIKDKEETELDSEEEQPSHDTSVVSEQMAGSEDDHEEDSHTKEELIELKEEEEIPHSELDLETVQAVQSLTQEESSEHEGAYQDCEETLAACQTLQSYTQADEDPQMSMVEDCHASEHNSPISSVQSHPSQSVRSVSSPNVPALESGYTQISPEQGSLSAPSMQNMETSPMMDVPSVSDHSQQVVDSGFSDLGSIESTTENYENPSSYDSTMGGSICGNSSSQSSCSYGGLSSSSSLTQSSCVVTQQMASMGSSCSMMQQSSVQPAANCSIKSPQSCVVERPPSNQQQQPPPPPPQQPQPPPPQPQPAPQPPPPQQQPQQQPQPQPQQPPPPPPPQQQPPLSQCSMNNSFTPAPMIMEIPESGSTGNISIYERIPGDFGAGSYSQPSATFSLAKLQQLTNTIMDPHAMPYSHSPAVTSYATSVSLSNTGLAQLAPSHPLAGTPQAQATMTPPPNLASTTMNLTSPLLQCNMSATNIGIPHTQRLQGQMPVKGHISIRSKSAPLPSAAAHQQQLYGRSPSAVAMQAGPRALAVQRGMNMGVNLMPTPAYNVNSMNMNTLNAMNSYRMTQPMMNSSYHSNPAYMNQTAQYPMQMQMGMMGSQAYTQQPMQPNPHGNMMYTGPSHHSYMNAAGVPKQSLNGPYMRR

[1] = target: KAT7+JADE1+EAF6+ING5 4 protein complex (Homo sapiens (Human), UniProt O95251); assay: KAT7 JADE1 assay (SAMDI-MS acetylation of H3 1-21 peptide); details: Morrison equation fit; replicate number in parentheses; read-out: KAT7 JADE1 Ki (nM) (replicate number)
KAT8 Full length enzyme = KAT8 Full length enzyme (Homo sapiens (Human), UniProt Q9H7Z6); assay: KAT8 assay (SAMDI-MS acetylation of H3 1-21 peptide); details: Morrison equation fit; replicate number in parentheses; read-out: KAT8 Ki (nM) (replicate number)
Chain of KAT8 Full length enzyme (Q9H7Z6 whole entry): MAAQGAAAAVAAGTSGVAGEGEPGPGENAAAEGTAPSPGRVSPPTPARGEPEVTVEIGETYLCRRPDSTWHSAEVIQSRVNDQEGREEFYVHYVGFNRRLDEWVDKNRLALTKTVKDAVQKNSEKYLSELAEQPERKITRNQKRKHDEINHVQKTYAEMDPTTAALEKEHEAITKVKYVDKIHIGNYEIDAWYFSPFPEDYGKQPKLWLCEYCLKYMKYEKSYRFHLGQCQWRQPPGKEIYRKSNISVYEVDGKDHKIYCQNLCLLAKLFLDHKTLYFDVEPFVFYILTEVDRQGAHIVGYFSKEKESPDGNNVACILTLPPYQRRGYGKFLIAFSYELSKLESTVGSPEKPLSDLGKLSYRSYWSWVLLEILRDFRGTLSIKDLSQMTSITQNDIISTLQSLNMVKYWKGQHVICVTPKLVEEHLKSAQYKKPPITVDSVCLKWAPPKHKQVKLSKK

Chain of KAT5 Full length enzyme (Q92993 whole entry): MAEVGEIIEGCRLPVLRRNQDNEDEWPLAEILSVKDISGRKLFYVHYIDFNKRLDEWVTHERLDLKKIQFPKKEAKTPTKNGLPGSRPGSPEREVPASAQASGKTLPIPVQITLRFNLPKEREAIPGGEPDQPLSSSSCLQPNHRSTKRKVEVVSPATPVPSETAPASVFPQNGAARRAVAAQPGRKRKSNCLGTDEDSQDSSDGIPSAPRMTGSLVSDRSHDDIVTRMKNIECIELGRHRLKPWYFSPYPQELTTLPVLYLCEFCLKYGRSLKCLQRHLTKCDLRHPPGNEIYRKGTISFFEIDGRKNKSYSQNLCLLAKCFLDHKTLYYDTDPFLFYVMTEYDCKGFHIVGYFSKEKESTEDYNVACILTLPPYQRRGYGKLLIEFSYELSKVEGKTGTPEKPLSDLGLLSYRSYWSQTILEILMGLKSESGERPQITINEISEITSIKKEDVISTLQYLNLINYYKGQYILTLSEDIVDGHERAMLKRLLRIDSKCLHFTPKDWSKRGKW

Row | SMILES | Ki (KAT5 Full length enzyme) | Ki (KAT6A Full length enzyme) | Ki [1] | Ki (KAT8 Full length enzyme)
1 | COc1cccc(OC)c1S(=O)(=O)Nc1noc2cc(Nc3ccon3)cc(OC)c12 [Example 16, 2,6-dimethoxy-N-{4-methoxy-6-[(1,2-oxazol-3-yl)amino]-1,2-benzoxazol-3-yl}benzene-1-sulfonamide] | 1650 nM | 0.2 nM | 702 nM | 2250 nM
2 | COc1cccc(OC)c1S(=O)(=O)Nc1noc2cc(Nc3ccccn3)cc(OC)c12 [Example 18, 2,6-dimethoxy-N-{4-methoxy-6-[(pyridin-2-yl)amino]-1,2-benzoxazol-3-yl}benzene-1-sulfonamide] | 5420 nM | 1 nM | 245 nM | 5960 nM
3 | COc1cccc(OC)c1S(=O)(=O)Nc1noc2cc(Nc3cccnn3)cc(OC)c12 [Example 19, 2,6-dimethoxy-N-{4-methoxy-6-[(pyridazin-3-yl)amino]-1,2-benzoxazol-3-yl}benzene-1-sulfonamide] | 15700 nM | 30.8 nM | 516 nM | > 16300 nM
4 | COc1cccc(OC)c1S(=O)(=O)Nc1noc2cc(Nc3ncccn3)cc(OC)c12 [Example 20, 2,6-dimethoxy-N-{4-methoxy-6-[(pyrimidin-2-yl)amino]-1,2-benzoxazol-3-yl}benzene-1-sulfonamide] | 9380 nM | 5.3 nM | 1540 nM | 14600 nM
5 | COc1cc2c(NS(=O)(=O)c3c(OC)cccc3OC)noc2cc1Nc1cc(C(C)(F)F)n[nH]1 [Example 66, N-(6-{[3-(1,1-difluoroethyl)-1H-pyrazol-5-yl]amino}-5-methoxy-1,2-benzoxazol-3-yl)-2,6-dimethoxybenzene-1-sulfonamide] | 871 nM | 10.7 nM | 130 nM | > 13000 nM
6 | CCOc1cc(C)c(F)cc1S(=O)(=O)Nc1noc2cc(Nc3cc(C4CC4)n[nH]3)c(F)c(OC)c12 [Example 70, N-{6-[(3-cyclopropyl-1H-pyrazol-5-yl)amino]-5-fluoro-4-methoxy-1,2-benzoxazol-3-yl}-2-ethoxy-5-fluoro-4-methylbenzene-1-sulfonamide] | 280 nM | 1.9 nM | 16.4 nM | 3880 nM
7 | CCc1cc(Nc2cc3onc(NS(=O)(=O)c4c(OC)cccc4OC)c3cc2OC)nn1C [Example 73, N-{6-[(5-ethyl-1-methyl-1H-pyrazol-3-yl)amino]-5-methoxy-1,2-benzoxazol-3-yl}-2,6-dimethoxybenzene-1-sulfonamide] | 287 nM | 0.7 nM | 31.3 nM | 4330 nM
8 | CCn1nc(Nc2cc3onc(NS(=O)(=O)c4c(OC)cccc4OC)c3cc2OC)cc1C [Example 74, N-{6-[(1-ethyl-5-methyl-1H-pyrazol-3-yl)amino]-5-methoxy-1,2-benzoxazol-3-yl}-2,6-dimethoxybenzene-1-sulfonamide] | 2160 nM | 5.2 nM | 483 nM | > 13000 nM
9 | CCn1cnc(Nc2cc3onc(NS(=O)(=O)c4c(OC)cccc4OC)c3cc2OC)c1 [Example 75, N-{6-[(1-ethyl-1H-imidazol-4-yl)amino]-5-methoxy-1,2-benzoxazol-3-yl}-2,6-dimethoxybenzene-1-sulfonamide] | 2210 nM | 22.3 nM | 501 nM | > 11200 nM
10 | CCOc1cc(F)ccc1S(=O)(=O)Nc1noc2cc(Nc3cc(C4CC4)n[nH]3)c(F)c(OC)c12 [Example 76, N-{6-[(3-cyclopropyl-1H-pyrazol-5-yl)amino]-5-fluoro-4-methoxy-1,2-benzoxazol-3-yl}-2-ethoxy-4-fluorobenzene-1-sulfonamide] | 1160 nM | 11.1 nM | 92 nM | > 13000 nM
11 | COc1cccc(OC2CC2)c1S(=O)(=O)Nc1noc2cc(Nc3cc(C4CC4)n[nH]3)c(F)c(OC)c12 [Example 80, 2-(cyclopropyloxy)-N-{6-[(5-cyclopropyl-1H-pyrazol-3-yl)amino]-5-fluoro-4-methoxy-1,2-benzoxazol-3-yl}-6-methoxybenzene-1-sulfonamide] | 1450 nM | 3.8 nM | 32.3 nM | 7760 nM
